Reference: patent US4994488A, “Novel imidate insecticides” (ICI Americas Inc., priority 1989, dated 1991)

Columns and labels:
Assay type in all cases: in vivo
[1] = test system: two-spotted mite [Tetranychus urticae (Koch)], eggs; test: Two-spotted mite acaricidal test, eggs (2SM-E); conditions: percent of test compound in solution; nymphs hatching from eggs; 5-7 days
Method: (§1) The compounds in Table 1 above were tested for insecticidal activity using the following testing procedures. LC50 values, based on the results of these tests and calculated according to dosage-mortality curves, are expressed in Table 2.
(§2) Acaricidal Evaluation Test
(§3) The two-spotted mite (2SM) [Tetranychus urticae (Koch)]was employed in tests for miticides. The test procedure was as follows:
(§4) Pinto bean plants (Phaseolus sp.), approximately 10 cm tall, were transplanted into sandy loam soil in small cups and thoroughly infested with two-spotted mites of mixed ages and sexes. Twenty-four hours later the infested plants were inverted and dipped for 2-3 seconds in 50--50 acetone-water solutions of the test compound. Treated plants were held in the greenhouse, and 5-7 days later mortality was determined for both adult mites and the nymphs hatching from eggs which were on the plants at the time of treatment. Test concentrations ranged from 0.05% downward. The LC-50 value is expressed below in Table 2 under the headings "2SM-A" (i.e., adults) and "2SM-E" (i.e. eggs) in terms of percent concentration of the test compound in the solution.

[2] = test system: Western Spotted Cucumber Beetle Larvae [Diabrotica undecimpunctata undecimpunctata (Mannherheim)]; test: Western spotted cucumber beetle larvae soil test (Diabrotica); conditions: ppm of test compound in the soil
Method: as §1
Western Spotted Cucumber Beetle Larvae[Diabrotica undecimpunctata undecimpunctata (Mannherheim)]
Ten grams of moist potting soil was placed in a plastic cup. The test compound was dissolved in acetone. A 0.05 ml aliquot of the test sample, diluted to the desired concentration, was added to the soil. The cup was capped and the soil was mixed on a vortex mixer for approximately 15 seconds. An indentation was made on the surface of the soil and approximately 50 Diabrotica eggs were added. The eggs were covered with soil and maintained at room temperature (approximately 70° F. or 21° C.). Four days later a section of Romaine lettuce (Latuca sativa) leaf was placed in the treated cups. One week later the cups were examined for live larvae. TEst concentrations ranged from 25 ppm downward. The LC-50 value is expressed below in Table 2 under the heading "Diabrotica" in terms of ppm of the test compound in the soil.

[3] = test system: Black Bean Aphid [Aphis fabae (Scop.)]; test: Black bean aphid insecticidal test (BBA), foliar spray; conditions: percent of test compound in sprayed solution; 48 hours
Method: (§5) The compounds in Table 1 above were tested for insecticidal activity using the following testing procedures.

[4] = test system: two-spotted mite [Tetranychus urticae (Koch)], adults; test: Two-spotted mite acaricidal test, adults (2SM-A); conditions: percent of test compound in solution, 5-7 days
Method: as §1, §2, §3, §4

[5] = test system: Tobacco Budworm [Heliothis virescens (Fabricius)], eggs; test: Tobacco budworm egg test (TBW-E); conditions: percent of test compound in solution; 2-day old eggs
Method: as §5
Tobacco Budworm [Heliothis virescens (Fabricius)]
(b). Eggs: Paper towel patches of 2-day old eggs of the tobacco budworm were dipped in acetone solutions of the test compound and placed in petri dishes containing a portion of larval rearing medium. […] Test concentrations ranged from 0.1% downward. The LC-50 value is expressed below in Table 2 under the heading "TBW-E" in terms of percent of the test compound in the solution.

[6] = test system: Beet Armyworm (Spodoptera exigua); test: Beet armyworm test (BAW); conditions: percent of test compound in solution; second-instar larvae; five days
Method: as §1
Beet Armyworm (Spodoptera exigua)
Test compounds were diluted in a 50--50 acetone-water solution. Young leaves of sugar beets (Beta vulgaris) were immersed in the test solutions for 2-3 seconds and placed on a wire screen to dry. The dried leaves were placed in petri dishes containing a moistened filter paper and infested with five second-instar beet armyworm larvae. The dishes were placed in a high humidity chamber. Mortality of the larvae was recorded five days later. Test concentrations ranged from 0.1% downward. The LC-50 values are expressed below in Table 2 under the heading "BAW" in terms of percent of the test compound in solution.

[7] = test system: Maize weevil (Sitophilus zeamais [Motschulsky]); test: Maize weevil test on treated corn seeds; conditions: 0.01% test solution, 48 hours, about 25° C.
Method: Maize weevil (Sitophilus zeamais [Motschulsky])
Test compounds were diluted in a 50:50 acetone:water solution to a concentration of 0.01%. Four corn seeds [Zea mays, (L.)]which had been immersed in test solutions for 2-3 seconds and allowed to dry were placed in covered containers at a temperature of about 25° C. Mortality was recorded after 48 hours.

[8] = test system: Cabbage Looper [Trichoplusia ni (Hubner)]; test: Cabbage looper test (CL); conditions: percent of test compound in solution; second-instar larvae; 3-5 days
Method: as §5
Cabbage Looper [Trichoplusia ni (Hubner)]
The test compound was diluted in a 50--50 acetone-water solution. Cotyledons of hyzini squash (Calabacita abobrinha), approximately 1×1.5 inches, were immersed in the test solutions for 2-3 seconds and placed on a wire screen to dry. The dried leaves were placed in petri dished containing a moistened piece of filter paper and infested with 5 secondinstar cabbage looper larvae. The dished were placed in a high humidity chamber. Mortality of the larvae was recorded 3-5 days later. Test concentrations ranged from 0.1% downward. The LC-50 value is expressed below in Table 2 under the heading "CL" in terms of percent of the test compound in solution.

[9] = test system: Housefly [Musca domestica]; test: Housefly insecticidal test (HF); conditions: per 25 female houseflies; mortality at 48 hours
Method: as §1
Housefly [Musca domestica]
The test compound was diluted in acetone and aliquots pipetted onto the bottom of aluminum dishes. To ensure even spreading of the chemical on the bottom of the dishes, 1 ml of acetone containing 0.01% peanut oil was also added to each dish. After all solvents had evaporated, the dishes were placed in circular cardboard cages containing 25 female houseflies, 1-2 days old. The cages were covered on the bottom with cellophane and on the top with tulle netting, and each contained a sugar-water saturated cotton plug for maintenance of the flies. Mortality was recorded after 48 hours. Test levels ranged from 100 μg/25 female houseflies downward. The LC-50 value is expressed below in Table 2 under the heading "HF", in terms of μg of the test compound per 25 female flies.

[10] = test system: Aster Leafhopper [Macrosteles fascifrens (Stal)]; test: Contact residue assay on the aster leafhopper (LH); conditions: percent of test compound in solution; adults/nymphs; 48 hours
Method: as §1
Contact Residue Assay on the Aster Leafhopper [Macrosteles fascifrens (Stal)]
Oat seedlings (Avena sp) were grown in a commercial potting soil in cups. When the plants were approximately 10 cm tall they were thinned to three plants per cup and dipped for 2-3 seconds in 50--50 acetone-water solutions of the test compounds. When the plants had dried, a clear plastic tube was placed over them and the bottom end pressed into the cup. Ten aster leafhopper adults/nymphs were then placed in each tube and the tops of the tubes covered with white organdy cloth. Mortality counts were made after 48 hours. Test concentrations ranged from 0.05% down to that at which 50% mortality occurred. The LC50 values are expressed below in Table 2 under the heading "LH" in terms of the percent of the test compound in the solution.

Row | Structure (SMILES) | LC50 2-SM E (eggs) [1] [%] | LC50 Diabrotica [2] | LC50 BBA [3] [%] | LC50 2-SM A (adults) [4] [%] | LC50 TBW E (eggs) [5] [%] | LC50 BAW [6] [%] | mortality at 0.01 % [7] [%] | LC50 CL [8] [%] | LC50 HF [9] [µg] | LC50 LH [10] [%]
1 | FC(F)(F)c1cccc(N=C(OCc2cccc(Oc3ccccc3)c2)C2CC2)c1 [Compound 9] | > 0.05 | > 25 ppm (soil) | > 0.05 | > 0.05 | > 0.1 |  |  |  |  | 
2 | Fc1ccc(N=C(OCc2cccc(Oc3ccccc3)c2)C2CC2)cc1Cl [Compound 10] | > 0.05 | > 25 ppm (soil) |  | > 0.05 | 0.1 |  |  |  |  | 
3 | Fc1ccc(Oc2cccc(COC(=Nc3ccc(F)c(Cl)c3)C3CC3)c2)cc1 [Compound 11] | > 0.05 | > 25 ppm (soil) |  | > 0.05 | 0.05 | > 0.1 |  |  |  | 
4 | CC1(C)C(C(=Nc2ccc(F)c(Cl)c2)OCc2cccc(Oc3ccccc3)c2)C1(C)C [Compound 12] | 0.05 | > 25 ppm (soil) |  | 0.05 | > 0.01 |  |  |  |  | 
5 | c1ccc(Oc2cccc(COC(=Nc3ccc4c(c3)OCO4)C3CC3)c2)cc1 [Compound 13] | > 0.05 | > 25 ppm (soil) |  | > 0.05 | > 0.01 |  | 50 | 0.002 |  | 
6 | CC(C)(C)c1ccc(N=C(OCc2cccc(Oc3ccc(F)cc3)c2)C2CC2)cc1 [Compound 14] | 0.02 | > 25 ppm (soil) |  | 0.02 | > 0.1 |  |  | 0.017 | > 100 | > 0.05
7 | Fc1ccc(COC(=Nc2ccc(C(F)(F)F)cc2)C2CC2)cc1Oc1ccccc1 [Compound 15] | < 0.05 | > 25 ppm (soil) |  | < 0.05 | 0.017 |  | 50 |  |  | 
8 | Fc1ccc(COC(=Nc2ccc(C(F)(F)F)cc2)C2CC2)cc1Oc1ccc(Cl)cc1 [Compound 16] | > 0.05 | > 25 ppm (soil) |  | > 0.05 | 0.023 |  |  |  |  | 
